Laboratory results: patent US20060293395A1, “Methods for treating a mammal before, during and after cardiac arrest” (priority 2004, published 2006)

What was measured:
male domestic pigs [1] = test: Example 3: dobutamine vs levosimendan in the porcine model of cardiac arrest and cardiac resuscitation; assay type: in vivo, pig
Method: Experimental Preparation: The experiments were performed in the porcine model of cardiac arrest and cardiac resuscitation which has been extensively exercised. (21,22). […] Anesthesia was initiated by intramuscular injection of ketamine (20 mg kg^−1) and was completed by ear vein injection of sodium pentobarbital (30 mg kg^−1). Additional 8 mg kg^−1 doses of sodium pentobarbital were injected to maintain anesthesia at intervals of one hour. A cuffed endotracheal tube was advanced into the trachea. Animals were mechanically ventilated with a volume of 15 mL kg^−1, peak airway flow of 40 L min^−1, and FiO2 of 0.2 with the aid of a volume-controlled ventilator (Model MA-1, Puritan-Bennett, Carlsbad, Calif.). End-tidal PCO2 (PETCO2) was monitored with an infrared analyzer (Model 01R-7101A, Nihon Kohden Corp, Tokyo, Japan). Respiratory frequency was adjusted to maintain PETCO2 between 35 and 40 mmHg. Blood temperature was maintained at 37±0.5° C. with the aid of infrared heating lamps, as required.
For the measurement of left ventricular functions, a 5.5/7.5 MHz biplane with pulse-wave Doppler transesophageal echocardiographic tranducer with 4-way flexure (Model 21363A, Hewlett-Packard Co. Medical Products Group, Andover, Mass.) was advanced from the incisor teeth into the esophagus for a distance of approximately 40 cm. For the measurement of aortic pressure, a fluid filled catheter was advanced from the surgically exposed left femoral artery into the thoracic aorta. For measurements of right atrial and pulmonary arterial pressures, blood temperature and cardiac output, a 7-French, pentalumen, thermodilution-tipped catheter was advanced from the surgically exposed left femoral vein and flow-directed into the pulmonary artery. For inducing VF, a 5-French pacing catheter (EP Techologies, Inc., Mountain View, Calif.) was advanced from the surgically exposed right cephalic vein into the right ventricle. […] This catheter was then looped laterally and advanced inferiorly for a distance of 5 cm into the great cardiac vein for sampling of coronary venous blood. The electrocardiographic (EKG) lead II was continuously recorded.
Experimental procedure: A total 15 animals were investigated. […] Cardiac arrest was induced with 1 to 2 mA AC delivered to the endocardium of the right ventricle. Mechanical ventilation was discontinued after onset of VF. At the end of a 7-minute interval of untreated VF, precordial compression (PC) was started with a pneumatic piston-driven chest compressor (Thumper, Model 1000, Michigan Instruments, Grand Rapids, Mich.). Coincident with the start of PC, the animal was mechanically ventilated with a tidal volume of […] and FiO2 of 1.0. […] The compression force was adjusted to decrease the anterior-posterior diameter of the chest by 25%. After 5 minutes of PC, defibrillation was attempted with a 150 J biphasic waveform shock delivered between the right infraclavicular area and the cardiac apex. If an organized cardiac rhythm with mean aortic pressure of more than 60 mm Hg persisted for an interval of 5 minutes or more, the animal was regarded as successfully resuscitated. At 10 minutes after restoration of spontaneous circulation (ROSC), one of the three interventions was begun. […] Levosimendan diluted in physiological salt solution was administered in a loading dose of 20 μg kg^−1, infused over 10 minutes, followed by infusion of 0.4 μg kg^−1 min^−1 also in physiologic salt solution for a total duration of 230 minutes.

rats = test: Example 1: feasibility studies and dose titration of levosimendan; assay type: in vivo, rat
male domestic pigs [2] = test: Levosimendan on post-resuscitation myocardial function after beta-adrenergic blockade (propranolol); assay type: in vivo, pig; settings: levosimendan added early postresuscitation after propranolol, in comparison with propranolol alone
Method: Anesthesia was initiated by intramuscular injection of ketamine (20 mg/kg) and completed by ear vein injection of sodium pentobarbital (30 mg/kg). Additional doses of sodium pentobarbital (8 mg/kg) were injected to maintain anesthesia at intervals of one hour. A cuffed endotracheal tube was advanced into the trachea. Animals were mechanically ventilated with a volume-controlled ventilator (Model MA-1, Puritan-Bennett, Carlsbad, Calif.) with a tidal volume of 15 mL/kg, peak flow of 40 L/min, and FiO2 of 0.21. End-tidal PCO2 (ETCO2) was monitored with an infrared analyzer (Model 01R-7101A, Nihon Kohden Corp, Tokyo, Japan). Respiratory frequency was adjusted to maintain PETCO2 between 35 and 40 mm Hg.
For the measurement of left ventricular functions, a 5.5/7.5 […] biplane with Doppler transesophageal echocardiographic transducer with 4-way flexure (Model 21363A, Hewlett-Packard Co., Medical Products Group, Andover, Mass.) was advanced from the incisor teeth into the esophagus for a distance of approximately 35 cm. For the measurement of aortic pressure, a fluid-filled catheter was advanced from the left femoral artery into the thoracic aorta. For the measurements of right atrial, pulmonary arterial pressures and blood temperature, a 7-French, pentalumen, thermodilution-tipped catheter was advanced from the left femoral vein and flow-directed into the pulmonary artery. A 7-French catheter was advanced from the left cephalic vein into the great cardiac vein for the measurement of great cardiac vein blood gases and lactate. For inducing VF, a 5-French pacing catheter (EP Technologies, Inc., Mountain View, Calif.) was advanced from the right cephalic vein into the right ventricle.
The investigators were blinded to the randomization. Cardiac arrest was induced with 1 to 2 mA AC delivered to the endocardium of the right ventricle. Mechanical ventilation was discontinued after onset of VF. At the end of the 7-min interval of untreated VF, precordial compression was started with a pneumatic piston-driven chest compressor (Thumper, Model 1000, Michigan Instruments, Grand Rapids, Mich.). […] The compression force was adjusted to decrease the anterior-posterior diameter of the chest by 25%. After 5 min of precordial compression, defibrillation was attempted with a 150 J biphasic waveform shock delivered between the right infraclavicular area and the cardiac apex. If an organized cardiac rhythm with mean aortic pressure of more than 60 mm Hg persisted for an interval of 5 min or more, the animal was regarded as successfully resuscitated. All animals had restoration of spontaneous circulation (ROSC) after electrical defibrillation, and were then randomized to three treatment groups: (1) propranolol (0.1 mg/kg bolus at 6 min of VF); (2) propranolol plus levosimendan (at 10 min after post resuscitation, 20 μg/kg over 10 min followed by 0.4 μg/kg/min for 220 min); and (3) equal volumes of saline as placebo.
Measurements were obtained over an interval of 4 hours following resuscitation. After 4 hours, animals were euthanized by intravenous injection of 150 mg kg^−1 pentobarbital. Autopsy was performed to document injuries to the bony thorax and the thoracic and abdominal viscera.

[3] = 4-hour interval after treatment
[4] = 12 μg levosimendan followed by 0.3 μg/kg/min, comparable to 3 μg/kg/min dobutamine

C[C@@H]1CC(=O)NN=C1c1ccc(NN=C(C#N)C#N)cc1 [Levosimendan] was tested, and the “mean pulmonary artery pressure” value (male domestic pigs [1]; [3]) was “Significantly lower”, the “right atrial (filling) pressure” value (male domestic pigs [1]; [3]) was “Significantly lower” and the heart rate (male domestic pigs [1]; among the three groups) was “did not differ”. The neurological alertness scores (male domestic pigs [1]; at 24 hours) was “significantly better”, the arterial pressure (male domestic pigs [1]; between levosimendan and dobutamine) was “no differences in arterial pressure” and the “coronary arterial-venous oxygen differences” value (male domestic pigs [1]; in comparison to dobutamine (FIG. 19)) was “numerically smaller”. For the same compound, the EF (male domestic pigs [1]; in comparison to dobutamine, persisted at 72 hours (FIG. 17)) was “significantly greater”, the FAC (male domestic pigs [1]; in comparison to dobutamine, persisted at 72 hours (FIG. 18)) was “significantly greater” and the cardiac output (male domestic pigs [1]; vs saline placebo (FIG. 16)) was “Significantly greater cardiac output”. For the same compound, the arterial pressure (rats; [4]) was “declines in arterial pressure”, the cardiac output (rats; [4]) was “increases in cardiac output” and the arterial pressure (rats; higher doses of levosimendan) was “decreases in arterial pressure”. For the same compound, the cardiac output (rats; higher doses of levosimendan) was “additional increases in cardiac output”, the heart rate (rats; higher doses of levosimendan) was “increases in heart rate” and the EF (male domestic pigs [2]) was “additional and significant increases”. For the same compound, the FAC (male domestic pigs [2]) was “additional and significant increases”.
